The text below walks through data of patent US20170152263A1, “Substituted Indazole Compounds as IRAK4 Inhibitors” (AURIGENE DISCOVERY TECHNOLOGIES LIMITED, priority 2014, published 2017).

The structures appear in SMILES notation. Structures can show the parent of a compound that is named as a salt.

This test addresses T1, recombinant IRAK-4 kinase (Homo sapiens, UniProt Q9NWZ3).
T1 construct: purchased Millipore, USA
T1 sequence (Q9NWZ3 1-460): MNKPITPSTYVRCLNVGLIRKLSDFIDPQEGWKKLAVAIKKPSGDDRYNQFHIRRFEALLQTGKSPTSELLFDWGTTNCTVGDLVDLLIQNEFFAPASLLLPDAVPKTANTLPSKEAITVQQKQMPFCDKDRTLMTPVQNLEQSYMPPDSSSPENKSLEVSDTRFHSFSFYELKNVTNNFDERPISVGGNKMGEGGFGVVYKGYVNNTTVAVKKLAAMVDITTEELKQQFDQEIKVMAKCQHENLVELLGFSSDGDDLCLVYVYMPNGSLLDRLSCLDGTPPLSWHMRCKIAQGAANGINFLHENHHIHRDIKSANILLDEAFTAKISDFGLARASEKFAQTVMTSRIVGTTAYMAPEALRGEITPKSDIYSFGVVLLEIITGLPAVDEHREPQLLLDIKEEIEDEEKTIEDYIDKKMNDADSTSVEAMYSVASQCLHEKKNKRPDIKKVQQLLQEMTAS
Kind of test: IRAK-4 biochemical assay (TR-FRET). As to conditions: IRAK-4 enzyme, 20 μM ATP; for inhibition at 1 µM: compound at 1 μM; for IC50: dose response; for inhibition at 0.1 µM: compound at 0.1 μM. How it is done:
Compounds were tested for their potential to inhibit IRAK-4 enzyme in a TR-FRET assay using recombinant IRAK-4 kinase from Millipore, USA. The assay buffer was 50 mM Tris-HCl pH 7.5, 20 mM MgCl2, 1 mM EGTA, 2 mM DTT, 3 mM MnCl2 and 0.01% Tween 20.5 ng of IRAK-4 kinase was used for the assay. After pre-incubation of enzyme with test compound for 30 minutes at room temperature, a substrate mixture containing 100 nM Biotin Histone H3 (Millipore, USA) and 20 μM ATP (Sigma, USA) was added and the reaction was incubated for 30 min. Post incubation, the reaction was stopped by the addition of stop mix containing 40 mM EDTA, 1 nM of Europium-Anti-Phospho-Histone H3 (Ser10) antibody (Perkin Elmer, USA) and 20 nM SureLight Allophycocyanin-Streptavidin (Perkin Elmer, USA). The fluorescence emission at 615 nm and 665 nm were measured at an excitation of 340 nm and the percent inhibition was estimated from the ratio of the fluorescence intensities [(F665/F615)×10000]. […] The IC50 values were estimated by fitting the dose-response data to sigmoidal dose response (variable slope), curve fitting program using Graphpad Prism software Version 6.01.
Background: In TR-FRET formats the signal depends on donor and acceptor labels being close together.

For the compound `Cc1cc(-c2nc(C(=O)Nc3cc4c(cnn4C)cc3N3CCCCC3)co2)ccn1` [Example 1, N-(1-methyl-5-(piperidin-1-yl)-1H-indazol-6-yl)-2-(2-methylpyridin-4-yl)oxazole-4-carboxamide hydrochloride], the inhibition – broadly, the change of the read-out against control, counted positive when it falls – at 1 µM came out at 96% and the IC50 (as a rule, the concentration at which inhibition is half-maximal) was under 100 nM.

Consider `Cc1cc(-c2nc(C(=O)Nc3cc4nn(C)cc4cc3N3CCCCC3)co2)ccn1` [Example 2, N—(2-methyl-5-(piperidin-1-yl)-2H-indazol-6-yl)-2-(2-methylpyridin-4-yl)oxazole-4-carboxamide hydrochloride], for which the inhibition at 1 µM came to 98% and the IC50 is under 100 nM.

As for `Cn1cc2cc(N3CCCCC3)c(NC(=O)c3cccc(N4CC[C@H](O)C4)n3)cc2n1` [Example 3, (S)-6-(3-hydroxypyrrolidin-1-yl)—N—(2-methyl-5-(piperidin-1-yl)-2H-indazol-6-yl)picolinamide], the inhibition at 0.1 µM was found to be 90%, the inhibition at 1 µM is 73% and the IC50 is over 250 nM.

Take `Cn1ncc2cc(N3CCCCC3)c(NC(=O)c3coc(N4CC[C@H](N)C4)n3)cc21` [Example 4, (S)-2-(3-aminopyrrolidin-1-yl)—N—(1-methyl-5-(piperidin-1-yl)-1H-indazol-6-yl)oxazole-4-carboxamide]: the inhibition at 1 µM was 84% and the IC50 was in the range of 100 to 250 nM.

On to `Cn1cc2cc(N3CCCCC3)c(NC(=O)c3coc(N4CC[C@H](N)C4)n3)cc2n1` [Example 5, (S)-2-(3-aminopyrrolidin-1-yl)—N—(2-methyl-5-(piperidin-1-yl)-2H-indazol-6-yl)oxazole-4-carboxamide], for which the inhibition at 0.1 µM worked out at 95%, the inhibition at 1 µM worked out at 82% and the IC50 was over 250 nM.

As for `Cn1cc2cc(N3CCCCC3)c(NC(=O)c3coc(N4CC[C@H](O)C4)n3)cc2n1` [Example 6, (S)-2-(3-hydroxypyrrolidin-1-yl)—N—(2-methyl-5-(piperidin-1-yl)-2H-indazol-6-yl)oxazole-4-carboxamide], the inhibition at 0.1 µM came out at 96%, the inhibition at 1 µM is 90% and the IC50 was in the range of 100 to 250 nM.

In the case of `Cn1cc2cc(N3CCCCC3)c(NC(=O)c3cccc(N4CC[C@H](N)C4)n3)cc2n1` [Example 7, (S)-6-(3-aminopyrrolidin-1-yl)—N—(2-methyl-5-(piperidin-1-yl)-2H-indazol-6-yl)picolinamide], the inhibition at 0.1 µM stood at 93%, the inhibition at 1 µM is 83% and the IC50 is over 250 nM.

`Cn1ncc2cc(N3CCCCC3)c(NC(=O)c3cccc(N4CC[C@H](N)C4)n3)cc21` [Example 8, (S)-6-(3-aminopyrrolidin-1-yl)—N—(1-methyl-5-(piperidin-1-yl)-1H-indazol-6-yl)picolinamide]: the inhibition at 0.1 µM is 90%, the inhibition at 1 µM turned out to be 56% and the IC50 is over 250 nM.

For the compound `Cn1ncc2cc(N3CCCCC3)c(NC(=O)c3cccc(N4CC[C@H](O)C4)n3)cc21` [Example 9, (S)-6-(3-hydroxypyrrolidin-1-yl)—N—(1-methyl-5-(piperidin-1-yl)-1H-indazol-6-yl)picolinamide], the inhibition at 0.1 µM amounted to 83%, the inhibition at 1 µM is 78% and the IC50 is over 250 nM.

With `Cn1ncc2cc(N3CCCCC3)c(NC(=O)c3coc(N4CC[C@H](O)C4)n3)cc21` [Example 10, (S)-2-(3-hydroxypyrrolidin-1-yl)—N—(1-methyl-5-(piperidin-1-yl)-1H-indazol-6-yl)oxazole-4-carboxamide], the inhibition at 0.1 µM turned out to be 95%, the inhibition at 1 µM is 91% and the IC50 is under 100 nM.

For `Cc1cc(-c2nc(C(=O)Nc3cc4c(cnn4C)cc3N3CC[C@H](O)C3)co2)ccn1` [Example 11, (S)—N—(5-(3-hydroxypyrrolidin-1-yl)-1-methyl-1H-indazol-6-yl)-2-(2-methylpyridin-4-yl)oxazole-4-carboxamide hydrochloride], the inhibition at 0.1 µM is 95%, the inhibition at 1 µM was found to be 98% and the IC50 was under 100 nM.

With `Cc1cc(-c2nc(C(=O)Nc3cc4c(cnn4C)cc3N3CCCC(O)C3)co2)ccn1` (stereo not shown) [Example 12, N—(5-(3-hydroxypiperidin-1-yl)-1-methyl-1H-indazol-6-yl)-2-(2-methylpyridin-4-yl)oxazole-4-carboxamide hydrochloride], the inhibition at 0.1 µM came to 94% and the IC50 is under 100 nM.

Consider `Cc1cc(-c2nc(C(=O)Nc3cc4nn(C)cc4cc3N3CCCC(O)C3)co2)ccn1` (stereo not shown) [Example 13, N—(5-(3-hydroxypiperidin-1-yl)-2-methyl-2H-indazol-6-yl)-2-(2-methylpyridin-4-yl)oxazole-4-carboxamide hydrochloride], for which the inhibition at 0.1 µM was determined as 79% and the IC50 is under 100 nM.

As for `Cc1cc(-c2nc(C(=O)Nc3cc4nn(C)cc4cc3N3CCCC(F)C3)co2)ccn1` (stereo not shown) [Example 14, N—(5-(3-fluoropiperidin-1-yl)-2-methyl-2H-indazol-6-yl)-2-(2-methylpyridin-4-yl)oxazole-4-carboxamide], the inhibition at 0.1 µM was 94%, the inhibition at 1 µM came out at 96% and the IC50 was under 100 nM.

For `CC(=O)Nc1cc(-c2nc(C(=O)Nc3cc4c(cnn4C)cc3N3CC[C@H](O)C3)co2)ccn1` [Example 15], the inhibition at 0.1 µM is 83%, the inhibition at 1 µM is 99% and the IC50 is under 100 nM.

Regarding `Cc1cc(-c2nc(C(=O)Nc3cc4c(cnn4C)cc3N3CCCC(F)C3)co2)ccn1` (stereo not shown) [Example 16, N—(5-(3-fluoropiperidin-1-yl)-1-methyl-1H-indazol-6-yl)-2-(2-methylpyridin-4-yl)oxazole-4-carboxamide], the inhibition at 0.1 µM is 94%, the inhibition at 1 µM was 99% and the IC50 was under 100 nM.

For `Cc1cc(-c2nc(C(=O)Nc3cc4c(cnn4C)cc3N3CCC(O)CC3)co2)ccn1` [Example 17, N—(5-(4-hydroxypiperidin-1-yl)-1-methyl-1H-indazol-6-yl)-2-(2-methylpyridin-4-yl)oxazole-4-carboxamide], the inhibition at 0.1 µM turned out to be 93%, the inhibition at 1 µM came to 95% and the IC50 is under 100 nM.

As for `Cn1ncc2cc(N3CC[C@H](O)C3)c(NC(=O)c3coc(-c4ccnc(N)c4)n3)cc21` [Example 18, (S)-2-(2-aminopyridin-4-yl)—N—(5-(3-hydroxypyrrolidin-1-yl)-1-methyl-1H-indazol-6-yl)oxazole-4-carboxamide], the inhibition at 0.1 µM was 94%, the inhibition at 1 µM is 96% and the IC50 is under 100 nM.

Turning to `Cc1cc(-c2nc(C(=O)Nc3cc4c(cnn4C)cc3N3CCC(F)CC3)co2)ccn1` [Example 19, N—(5-(4-fluoropiperidin-1-yl)-1-methyl-1H-indazol-6-yl)-2-(2-methylpyridin-4-yl)oxazole-4-carboxamide], the inhibition at 0.1 µM was found to be 94%, the inhibition at 1 µM came out at 97% and the IC50 is under 100 nM.

Regarding `Cc1cc(-c2nc(C(=O)Nc3cc4c(cnn4C)cc3N3CCC(CO)CC3)co2)ccn1` [Example 20, N-(5-(4-(hydroxymethyl)piperidin-1-yl)-1-methyl-1H-indazol-6-yl)-2-(2-methylpyridin-4-yl)oxazole-4-carboxamide], the inhibition at 0.1 µM stood at 96%, the inhibition at 1 µM was 97% and the half-inhibitory concentration (IC50) is under 100 nM.

As for `Cc1cc(-c2nc(C(=O)Nc3cc4c(cnn4C)cc3N3CC[C@H](O)C3)co2)cc(C)n1` [Example 21, (S)-2-(2,6-dimethylpyridin-4-yl)—N—(5-(3-hydroxypyrrolidin-1-yl)-1-methyl-1H-indazol-6-yl)oxazole-4-carboxamide], the inhibition at 0.1 µM was found to be 41%, the inhibition at 1 µM amounted to 84% and the IC50 lay within 100 to 250 nM.

Regarding `Cc1cc(-c2nc(C(=O)Nc3cc4c(cnn4C)cc3N3CC[C@@H](O)C3)co2)ccn1` [Example 22, (R)—N—(5-(3-hydroxypyrrolidin-1-yl)-1-methyl-1H-indazol-6-yl)-2-(2-methylpyridin-4-yl)oxazole-4-carboxamide], the inhibition at 0.1 µM came out at 89%, the inhibition at 1 µM is 96% and the IC50 was under 100 nM.

`Cn1ncc2cc(N3CC[C@H](O)C3)c(NC(=O)c3coc(-c4cccnc4N)n3)cc21` [Example 23, (S)-2-(2-aminopyridin-3-yl)—N—(5-(3-hydroxypyrrolidin-1-yl)-1-methyl-1H-indazol-6-yl)oxazole-4-carboxamide]: the inhibition at 0.1 µM is 81%, the inhibition at 1 µM came out at 95% and the IC50 was under 100 nM.
